The supplement of paper PMC10307832

Tests used:
Assay in all cases: relative viability (nuclei count vs DMSO), 5 days (fraction); higher = more cells survive
Nelarabine + Alpelisib = compound: COc1nc(N)nc2c1ncn2[C@@H]1O[C@H](CO)[C@@H](O)[C@@H]1O [Nelarabine] + Cc1nc(NC(=O)N2CCC[C@H]2C(N)=O)sc1-c1ccnc(C(C)(C)C(F)(F)F)c1 [Alpelisib] (partner 2 µM)
Procedure, shortened: (§1)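 Lung cancer cell lines were seeded in 1536-well plates and dosed by pin tool the next day, with either a single drug or a fixed anchor-drug dose combined with five library-drug doses (not always all listed) spaced in √10 steps. Five days later, one step fixed the cells and stained their nuclei (final 0.05% Triton X-100, 1% formaldehyde, 1 ug/ml Hoechst), and nuclei were counted on 4× images. Relative viability is the nuclei count in treated wells divided by the count in vehicle wells, and each value is the median of duplicate plates.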

Nelarabine + Phenformin = compound: COc1nc(N)nc2c1ncn2[C@@H]1O[C@H](CO)[C@@H](O)[C@@H]1O [Nelarabine] + N=C(N)NC(=N)NCCc1ccccc1 [Phenformin] (partner 250 µM)
Procedure, shortened: as §1

Nelarabine + Tozasertib = compound: COc1nc(N)nc2c1ncn2[C@@H]1O[C@H](CO)[C@@H](O)[C@@H]1O [Nelarabine] + Cc1cc(Nc2cc(N3CCN(C)CC3)nc(Sc3ccc(NC(=O)C4CC4)cc3)n2)n[nH]1 [Tozasertib] (partner 0.1 µM)
Procedure, shortened: as §1

Nelarabine + Palbociclib = compound: COc1nc(N)nc2c1ncn2[C@@H]1O[C@H](CO)[C@@H](O)[C@@H]1O [Nelarabine] + CC(=O)c1c(C)c2cnc(Nc3ccc(N4CCNCC4)cn3)nc2n(C2CCCC2)c1=O [Palbociclib] (partner 0.5 µM)
Procedure, shortened: as §1

Cell Line	relative viability (Nelarabine + Alpelisib; first compound 0.01 µM)	relative viability (Nelarabine + Alpelisib; first compound 0.03162 µM)	relative viability (Nelarabine + Alpelisib; first compound 0.1 µM)	relative viability (Nelarabine + Alpelisib; first compound 0.3162 µM)	relative viability (Nelarabine + Alpelisib; first compound 1 µM)	relative viability (Nelarabine + Phenformin; first compound 0.01 µM)	relative viability (Nelarabine + Phenformin; first compound 0.03162 µM)	relative viability (Nelarabine + Phenformin; first compound 0.1 µM)	relative viability (Nelarabine + Phenformin; first compound 0.3162 µM)	relative viability (Nelarabine + Phenformin; first compound 1 µM)	relative viability (Nelarabine + Tozasertib; first compound 0.01 µM)	relative viability (Nelarabine + Tozasertib; first compound 0.03162 µM)	relative viability (Nelarabine + Tozasertib; first compound 0.1 µM)	relative viability (Nelarabine + Tozasertib; first compound 0.3162 µM)	relative viability (Nelarabine + Tozasertib; first compound 1 µM)	relative viability (Nelarabine + Palbociclib; first compound 0.01 µM)	relative viability (Nelarabine + Palbociclib; first compound 0.03162 µM)	relative viability (Nelarabine + Palbociclib; first compound 0.1 µM)	relative viability (Nelarabine + Palbociclib; first compound 0.3162 µM)	relative viability (Nelarabine + Palbociclib; first compound 1 µM)
NCI-H23	0.637	0.719	0.606	0.686	0.693	0.778	0.766	0.684	0.847	0.79	0.594	0.327	0.377	0.369	0.509	0.54	0.51	0.43	0.503	0.634
NCI-H322M	0.926	0.792	0.677	0.772	0.836	0.819	0.716	0.762	0.776	0.745	0.554	0.485	0.407	0.501	0.456	0.382	0.499	0.475	0.473	0.495
NCI-H358	0.906	0.839	0.62	0.845	0.857	0.441	0.308	0.305	0.356	0.377	0.0868	0.0783	0.096	0.105	0.0898	0.121	0.136	0.129	0.127	0.139
NCI-H441	0.974	0.675	0.704	0.921	0.986	0.862	0.93	0.666	0.898	0.883	0.691	0.704	0.58	0.61	0.697	0.194	0.188	0.202	0.192	0.192
NCI-H460	1.03	0.411	0.565	0.66	0.371	1.35	0.648	0.646	0.611	0.482	0.834	0.253	0.38	0.77	0.442	0.212	0.213	0.144	0.162	0.181
NCI-H520	1.16	0.924	1.16	1.03	1.1	0.811	0.343	0.638	0.806	0.513	0.574	0.315	0.429	0.457	0.429	0.215	0.186	0.236	0.261	0.168
NCI-H647	1.2	0.705	1.12	1.56	1.19	0.641	0.301	0.631	0.501	0.427	0.347	0.207	0.387	0.24	0.247	0.423	0.396	0.501	0.457	0.458
NCI-H650	1.38	1.08	1	1.14	1.24	0.505	0.425	0.46	0.457	0.461	0.787	0.616	0.694	0.768	0.735	0.338	0.283	0.297	0.301	0.363
NCI-H661	0.497	0.834	0.701	0.772	0.455	0.282	0.277	0.276	0.274	0.258	0.343	0.334	0.333	0.344	0.364	0.386	0.401	0.402	0.403	0.422
NCI-H727	0.683	0.572	0.632	0.625	0.571	0.604	0.589	0.642	0.508	0.682	0.789	0.816	0.617	0.598	0.694	0.659	0.602	0.663	0.624	0.608
NCI-H838	1.29	0.769	1.07	1.11	1.02	0.701	0.549	0.608	0.595	0.628	0.285	0.274	0.272	0.341	0.262	0.267	0.244	0.226	0.242	0.253
NCI-H1355	1.09	0.615	0.813	0.894	0.801	0.442	0.413	0.418	0.433	0.455	0.521	0.483	0.478	0.539	0.577	0.398	0.316	0.401	0.401	0.447
NCI-H1395	1.15	0.987	1	1.34	0.99	0.487	0.401	0.474	0.455	0.423	0.839	0.67	0.814	0.729	0.657	0.543	0.559	0.69	0.566	0.622
NCI-H1437	1.17	0.918	0.945	1.13	1.03	0.304	0.309	0.318	0.302	0.325	0.466	0.353	0.488	0.427	0.41	0.342	0.35	0.307	0.338	0.302
NCI-H1651	1.15	0.963	1.12	1.02	0.855	0.362	0.329	0.46	0.353	0.355	0.944	0.767	0.689	0.674	0.685	0.566	0.596	0.553	0.512	0.522
NCI-H1666	0.99	0.917	0.957	1.05	0.883	0.576	0.607	0.569	0.536	0.606	0.626	0.572	0.606	0.578	0.632	0.607	0.648	0.677	0.661	0.59
